Activity calls are given as the source filed them. No cut-off for these calls is given here.

As usually defined, the Papp is a coefficient for how fast a substance crosses the barrier.

In the first data set the test system is PC-12. Description: Neuroprotective activity against rat PC12 cells assessed as reduction in amyloid beta (25 to 35)-induced cytotoxicity at 15 uM incubated for 4 hrs followed by amyloid beta (25 to 35) treatment for 24 hrs by MTT assay relative to control. It is filed as functional. Also noted: scale not given: the % may be the effect or the level left. The conditions noted are these: time 28 hrs. For orientation: Tetrazolium assays rely on reduction of a dye to a coloured formazan, in cell work by metabolically active cells.
Consider `COC(=O)[C@@H](CC(C)C)NC(=O)CCC(=O)O[C@H]1CC[C@]2(C)[C@H]3C[C@@H](O)[C@@H]4[C@@H]([C@@]5(C)CCCC(C)(C)O5)CC[C@@]4(C)[C@]3(C)CC[C@H]2C1(C)C`, for which the Activity was determined as 16.07%.
On to `COc1ccc(NC(=O)O[C@H]2CC[C@]3(C)[C@H]4C[C@@H](O)[C@@H]5[C@@H]([C@@]6(C)CCCC(C)(C)O6)CC[C@@]5(C)[C@]4(C)CC[C@H]3C2(C)C)cc1`, for which the Activity is reported as 65.27%.
Regarding `CC1(C)CCC[C@](C)([C@H]2CC[C@]3(C)[C@@H]2[C@H](O)C[C@@H]2[C@@]4(C)CC[C@H](OC(=O)/C=C/c5ccccc5)C(C)(C)[C@@H]4CC[C@]23C)O1`, the Activity was 22.78%.
Still for that read-out and setting: under `CCCNC(=O)O[C@H]1CC[C@]2(C)[C@H]3C[C@@H](O)[C@@H]4[C@@H]([C@@]5(C)CCCC(C)(C)O5)CC[C@@]4(C)[C@]3(C)CC[C@H]2C1(C)C` stands 65.9%; under `CC1(C)CCC[C@](C)([C@H]2CC[C@]3(C)[C@@H]2[C@H](O)C[C@@H]2[C@@]4(C)CC[C@H](OC(=O)/C=C/c5ccc(N6CCOCC6)cc5)C(C)(C)[C@@H]4CC[C@]23C)O1`, 32.75%.
As for `COc1cc(/C=C/C(=O)O[C@H]2CC[C@]3(C)[C@H]4C[C@@H](O)[C@@H]5[C@@H]([C@@]6(C)CCCC(C)(C)O6)CC[C@@]5(C)[C@]4(C)CC[C@H]3C2(C)C)ccc1O`, the Activity is on record as 55.55%.
Still for that read-out and setting: under `C=CCNC(=O)O[C@H]1CC[C@]2(C)[C@H]3C[C@@H](O)[C@@H]4[C@@H]([C@@]5(C)CCCC(C)(C)O5)CC[C@@]4(C)[C@]3(C)CC[C@H]2C1(C)C` stands 70.06%.
Consider `CC1(C)CCC[C@](C)([C@H]2CC[C@]3(C)[C@@H]2[C@H](O)C[C@@H]2[C@@]4(C)CC[C@H](OC(=O)Nc5ccc(F)cc5)C(C)(C)[C@@H]4CC[C@]23C)O1`, for which the Activity stood at 67.4%.
As to `CC1(C)CCC[C@](C)([C@H]2CC[C@]3(C)[C@@H]2[C@H](O)C[C@@H]2[C@@]4(C)CC[C@H](OC(=O)c5cn(-c6ccc([N+](=O)[O-])cc6)nn5)C(C)(C)[C@@H]4CC[C@]23C)O1`, the Activity was found to be 23.76%.
Turning to `COC(=O)[C@@H](Cc1ccccc1)NC(=O)CCC(=O)O[C@H]1CC[C@]2(C)[C@H]3C[C@@H](O)[C@@H]4[C@@H]([C@@]5(C)CCCC(C)(C)O5)CC[C@@]4(C)[C@]3(C)CC[C@H]2C1(C)C`, the Activity was 33.77%.
Turning to `CC1(C)CCC[C@](C)([C@H]2CC[C@]3(C)[C@@H]2[C@H](O)C[C@@H]2[C@@]4(C)CC[C@H](OC(=O)c5cn(-c6ccccc6)nn5)C(C)(C)[C@@H]4CC[C@]23C)O1`, the Activity is reported as 25.49%.
On to `CC1(C)CCC[C@](C)([C@H]2CC[C@]3(C)[C@@H]2[C@H](O)C[C@@H]2[C@@]4(C)CC[C@H](OC(=O)CN5CCCCC5)C(C)(C)[C@@H]4CC[C@]23C)O1.Cl`, for which the Activity is listed as 12.66%.
For `CCNC(=O)O[C@H]1CC[C@]2(C)[C@H]3C[C@@H](O)[C@@H]4[C@@H]([C@@]5(C)CCCC(C)(C)O5)CC[C@@]4(C)[C@]3(C)CC[C@H]2C1(C)C`, the Activity stood at 65.69%.
Still for that read-out and setting: under `COc1ccc(-n2cc(C(=O)O[C@H]3CC[C@]4(C)[C@H]5C[C@@H](O)[C@@H]6[C@@H]([C@@]7(C)CCCC(C)(C)O7)CC[C@@]6(C)[C@]5(C)CC[C@H]4C3(C)C)nn2)cc1` stands 52.37%; under `CC1(C)CCC[C@](C)([C@H]2CC[C@]3(C)[C@@H]2[C@H](O)C[C@@H]2[C@@]4(C)CC[C@H](OC(=O)CN5CCOCC5)C(C)(C)[C@@H]4CC[C@]23C)O1.Cl`, 23.96%.
The same measure, in the same setting: with `CC1(C)CCC[C@](C)([C@H]2CC[C@]3(C)[C@@H]2[C@H](O)C[C@@H]2[C@@]4(C)CC[C@H](OP(=O)(Oc5ccc(F)cc5)Oc5ccc(F)cc5)C(C)(C)[C@@H]4CC[C@]23C)O1` the figure was 48.68%; with `COC(=O)[C@H](NC(=O)CCC(=O)O[C@H]1CC[C@]2(C)[C@H]3C[C@@H](O)[C@@H]4[C@@H]([C@@]5(C)CCCC(C)(C)O5)CC[C@@]4(C)[C@]3(C)CC[C@H]2C1(C)C)c1ccccc1`, 22.85%; with `CCCCCCNC(=O)O[C@H]1CC[C@]2(C)[C@H]3C[C@@H](O)[C@@H]4[C@@H]([C@@]5(C)CCCC(C)(C)O5)CC[C@@]4(C)[C@]3(C)CC[C@H]2C1(C)C`, 50.09%.
Take `COc1ccc(OP(=O)(Oc2ccc(OC)cc2)O[C@H]2CC[C@]3(C)[C@H]4C[C@@H](O)[C@@H]5[C@@H]([C@@]6(C)CCCC(C)(C)O6)CC[C@@]5(C)[C@]4(C)CC[C@H]3C2(C)C)cc1`: the Activity turned out to be 57.15%.
For the compound `CC(C)NC(=O)O[C@H]1CC[C@]2(C)[C@H]3C[C@@H](O)[C@@H]4[C@@H]([C@@]5(C)CCCC(C)(C)O5)CC[C@@]4(C)[C@]3(C)CC[C@H]2C1(C)C`, the Activity was 69.45%.
On to `CC1(C)CCC[C@](C)([C@H]2CC[C@]3(C)[C@@H]2[C@H](O)C[C@@H]2[C@@]4(C)CC[C@H](OC(=O)NC5CCCCC5)C(C)(C)[C@@H]4CC[C@]23C)O1`, for which the Activity is given as 66.39%.
Still for that read-out and setting: under `CC1(C)CCC[C@](C)([C@H]2CC[C@]3(C)[C@@H]2[C@H](O)C[C@@H]2[C@@]4(C)CC[C@H](OC(=O)CN5CCN(Cc6ccccc6)CC5)C(C)(C)[C@@H]4CC[C@]23C)O1.Cl` stands 37.37%; under `CC1(C)CCC[C@](C)([C@H]2CC[C@]3(C)[C@@H]2[C@H](O)C[C@@H]2[C@@]4(C)CC[C@H](OC(=O)Nc5ccccc5)C(C)(C)[C@@H]4CC[C@]23C)O1`, 71.32%.
Regarding `CC1(C)CCC[C@](C)([C@H]2CC[C@]3(C)[C@@H]2[C@H](O)C[C@@H]2[C@@]4(C)CC[C@H](OC(=O)Nc5cccc(F)c5)C(C)(C)[C@@H]4CC[C@]23C)O1`, the Activity was 65.25%.
Same read-out and setting: with `COC(=O)[C@H](NC(=O)CCC(=O)O[C@H]1CC[C@]2(C)[C@H]3C[C@@H](O)[C@@H]4[C@@H]([C@@]5(C)CCCC(C)(C)O5)CC[C@@]4(C)[C@]3(C)CC[C@H]2C1(C)C)C(C)C` the figure was 25.34%; with `CC1(C)CCC[C@](C)([C@H]2CC[C@]3(C)[C@@H]2[C@H](O)C[C@@H]2[C@@]4(C)CC[C@H](OC(=O)/C=C/c5ccco5)C(C)(C)[C@@H]4CC[C@]23C)O1`, 40.56%; with `COc1cc(/C=C/C(=O)O[C@H]2CC[C@]3(C)[C@H]4C[C@@H](O)[C@@H]5[C@@H]([C@@]6(C)CCCC(C)(C)O6)CC[C@@]5(C)[C@]4(C)CC[C@H]3C2(C)C)cc(OC)c1OC`, 36.23%.
With `CC1(C)CCC[C@](C)([C@H]2CC[C@]3(C)[C@@H]2[C@H](O)C[C@@H]2[C@@]4(C)CC[C@H](OC(=O)c5cn(-c6ccc(Cl)cc6)nn5)C(C)(C)[C@@H]4CC[C@]23C)O1`, the Activity is reported as 36.15%.
Regarding `CCCCCCCNC(=O)O[C@H]1CC[C@]2(C)[C@H]3C[C@@H](O)[C@@H]4[C@@H]([C@@]5(C)CCCC(C)(C)O5)CC[C@@]4(C)[C@]3(C)CC[C@H]2C1(C)C`, the Activity is given as 59.9%.
On to `CC1(C)CCC[C@](C)([C@H]2CC[C@]3(C)[C@@H]2[C@H](O)C[C@@H]2[C@@]4(C)CC[C@H](OC(=O)c5cn(-c6ccc(F)cc6)nn5)C(C)(C)[C@@H]4CC[C@]23C)O1`, for which the Activity is 33.68%.
For `Cc1ccc(NC(=O)O[C@H]2CC[C@]3(C)[C@H]4C[C@@H](O)[C@@H]5[C@@H]([C@@]6(C)CCCC(C)(C)O6)CC[C@@]5(C)[C@]4(C)CC[C@H]3C2(C)C)cc1`, the Activity was 64.13%.
`CC1(C)CCC[C@](C)([C@H]2CC[C@]3(C)[C@@H]2[C@H](O)C[C@@H]2[C@@]4(C)CC[C@H](OC(=O)Nc5ccc(Cl)cc5)C(C)(C)[C@@H]4CC[C@]23C)O1`: the Activity amounted to 64.16%.

Tested on in a further data set: not listed separately
Description: Permeability of the compound incubated for 4 hrs by PAMPA-BBB assay based HPLC analysis.
Settings: not given
(In general: In PAMPA a lipid-coated filter parts donor from acceptor wells.)
For the compound `NC(=O)N1c2ccccc2C=Cc2ccccc21` [CARBAMAZEPINE], the apparent permeability coefficient (Papp) at 4 h was determined as 8.78 ×10⁻⁶ cm/s.

A further data set deals with Amyloid-beta precursor protein (Homo sapiens) (UniProt P05067). Description: Disaggregation of amyloid beta (25 to 35) (unknown origin) self aggregation at 15 uM incubated for 24 hrs by transmission electron microscopy analysis.
Chain of Amyloid-beta precursor protein (Homo sapiens) (P05067 whole entry): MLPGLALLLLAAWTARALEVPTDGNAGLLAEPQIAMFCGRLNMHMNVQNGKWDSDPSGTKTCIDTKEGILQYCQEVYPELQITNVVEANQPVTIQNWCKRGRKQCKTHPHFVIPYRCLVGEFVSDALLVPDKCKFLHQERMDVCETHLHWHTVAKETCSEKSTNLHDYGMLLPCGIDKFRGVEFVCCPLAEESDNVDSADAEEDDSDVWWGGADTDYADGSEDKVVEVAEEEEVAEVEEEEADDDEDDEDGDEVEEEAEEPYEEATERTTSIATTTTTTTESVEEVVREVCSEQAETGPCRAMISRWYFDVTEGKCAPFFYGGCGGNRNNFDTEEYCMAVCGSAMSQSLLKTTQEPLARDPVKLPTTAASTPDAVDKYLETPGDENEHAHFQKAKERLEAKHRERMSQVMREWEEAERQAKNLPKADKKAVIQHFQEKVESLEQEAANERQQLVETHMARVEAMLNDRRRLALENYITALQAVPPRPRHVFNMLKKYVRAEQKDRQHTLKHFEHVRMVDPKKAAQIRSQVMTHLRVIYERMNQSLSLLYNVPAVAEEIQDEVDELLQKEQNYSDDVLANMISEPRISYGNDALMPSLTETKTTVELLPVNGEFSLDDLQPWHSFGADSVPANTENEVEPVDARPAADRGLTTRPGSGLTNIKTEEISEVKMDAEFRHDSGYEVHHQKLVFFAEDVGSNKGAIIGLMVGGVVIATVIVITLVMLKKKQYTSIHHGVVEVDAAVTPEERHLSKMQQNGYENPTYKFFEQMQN
Settings: not given
`COc1cc(/C=C/C(=O)CC(=O)/C=C/c2ccc(O)c(OC)c2)ccc1O`: the outcome was Active.
